The structures appear in SMILES notation. Calls of active or inactive are those of the source. The calls are words filed in the database; no cut-off is given here.

The text below walks through data of ChEMBL document CHEMBL5625267, “Glycosidase-activated H2S donorsto enhance chemotherapy efficacy” (Bioorg Med Chem Lett, 2024).

In the first data set the test system is HeLa. The data set is described as follows: Antiproliferative activity against human HeLa cells assessed as cell viability at 50 uM incubated for 24 hrs by MTT assay relative to control. Type of data set: functional. To be noted: read-out: Activity.
Consider `OC[C@H]1O[C@@H](Oc2ccc(COC(=S)Nc3ccc(C(F)(F)F)cc3)cc2F)[C@H](O)[C@@H](O)[C@@H]1O`, for which the viability at 50 µM is 96%.
As to `OC[C@H]1O[C@H](Oc2ccc(COC(=S)Nc3ccc(C(F)(F)F)cc3)cc2Br)[C@@H](O)[C@@H](O)[C@@H]1O`, the viability at 50 µM stood at 102%.
On to `OC[C@H]1O[C@@H](Oc2ccc(COC(=S)Nc3ccc(C(F)(F)F)cc3)cc2Br)[C@H](O)[C@@H](O)[C@H]1O`, for which the viability at 50 µM came to 97.5%.

In a further data set the test system is HepG2. Put plainly: Antiproliferative activity against human HepG2 cells assessed as cell viability at 50 uM incubated for 24 hrs by MTT assay relative to control. Type of data set: functional. To be noted: read-out: Activity. (In general: Tetrazolium dyes change colour on reduction, which living cells bring about.)
Turning to `OC[C@H]1O[C@@H](Oc2ccc(COC(=S)Nc3ccc(C(F)(F)F)cc3)cc2F)[C@H](O)[C@@H](O)[C@@H]1O`, the viability at 50 µM was 88.6%.
The same measure, in the same setting: the value for `OC[C@H]1O[C@H](Oc2ccc(COC(=S)Nc3ccc(C(F)(F)F)cc3)cc2Br)[C@@H](O)[C@@H](O)[C@@H]1O` was 53.2%; that for `OC[C@H]1O[C@@H](Oc2ccc(COC(=S)Nc3ccc(C(F)(F)F)cc3)cc2Br)[C@H](O)[C@@H](O)[C@H]1O` was 82.2%.

System in a further data set: not listed separately
The data set is described as follows: Antiproliferative activity against mouse 3T3 cells assessed as cell viability at 50 uM incubated for 24 hrs by MTT assay relative to control. The data set is classed as toxicity, cell-based. The note with it: NIH3T3 cells, read-out: Activity.
`OC[C@H]1O[C@@H](Oc2ccc(COC(=S)Nc3ccc(C(F)(F)F)cc3)cc2F)[C@H](O)[C@@H](O)[C@@H]1O`: the viability at 24 h, 50 µM stood at 88.9%.
On the same count and under the same terms, in the case of `OC[C@H]1O[C@H](Oc2ccc(COC(=S)Nc3ccc(C(F)(F)F)cc3)cc2Br)[C@@H](O)[C@@H](O)[C@@H]1O` it was 83.6%.
For the compound `OC[C@H]1O[C@@H](Oc2ccc(COC(=S)Nc3ccc(C(F)(F)F)cc3)cc2Br)[C@H](O)[C@@H](O)[C@H]1O`, the viability at 24 h, 50 µM stood at 86.8%.

In the next data set the test system is HeLa. Put plainly: Antiproliferative activity against human HeLa cells assessed as cell viability at 80 uM incubated for 24 hrs by MTT assay relative to control. The data set is classed as functional. The note with it: read-out: Activity.
As to `OC[C@H]1O[C@@H](Oc2ccc(COC(=S)Nc3ccc(C(F)(F)F)cc3)cc2F)[C@H](O)[C@@H](O)[C@@H]1O`, the viability at 80 µM came out at 100%.
In the case of `OC[C@H]1O[C@H](Oc2ccc(COC(=S)Nc3ccc(C(F)(F)F)cc3)cc2Br)[C@@H](O)[C@@H](O)[C@@H]1O`, the viability at 80 µM came out at 70.8%.
With `OC[C@H]1O[C@@H](Oc2ccc(COC(=S)Nc3ccc(C(F)(F)F)cc3)cc2Br)[C@H](O)[C@@H](O)[C@H]1O`, the viability at 80 µM is 88.2%.

Another data set has as its system HepG2. Put plainly: Antiproliferative activity against human HepG2 cells assessed as cell viability at 80 uM incubated for 24 hrs by MTT assay relative to control. To be noted: read-out: Activity. The data set is classed as functional.
`OC[C@H]1O[C@@H](Oc2ccc(COC(=S)Nc3ccc(C(F)(F)F)cc3)cc2F)[C@H](O)[C@@H](O)[C@@H]1O`: the viability at 80 µM was 86%.
Same read-out and setting: in the case of `OC[C@H]1O[C@H](Oc2ccc(COC(=S)Nc3ccc(C(F)(F)F)cc3)cc2Br)[C@@H](O)[C@@H](O)[C@@H]1O` it was 37.6%.
Still for that read-out and setting: in the case of `OC[C@H]1O[C@@H](Oc2ccc(COC(=S)Nc3ccc(C(F)(F)F)cc3)cc2Br)[C@H](O)[C@@H](O)[C@H]1O` it was 86.8%.

System in another data set: not listed separately
Put plainly: Antiproliferative activity against mouse 3T3 cells assessed as cell viability at 80 uM incubated for 24 hrs by MTT assay relative to control. The data set is classed as toxicity, cell-based. The note with it: NIH3T3 cells, read-out: Activity.
`OC[C@H]1O[C@@H](Oc2ccc(COC(=S)Nc3ccc(C(F)(F)F)cc3)cc2F)[C@H](O)[C@@H](O)[C@@H]1O`: the viability at 24 h, 80 µM amounted to 90.8%.
Same read-out and setting: the value for `OC[C@H]1O[C@H](Oc2ccc(COC(=S)Nc3ccc(C(F)(F)F)cc3)cc2Br)[C@@H](O)[C@@H](O)[C@@H]1O` was 62.3%; that for `OC[C@H]1O[C@@H](Oc2ccc(COC(=S)Nc3ccc(C(F)(F)F)cc3)cc2Br)[C@H](O)[C@@H](O)[C@H]1O` was 89.2%.

In the next data set the test system is HepG2. Put plainly: Induction of apoptosis in human HepG2 cells at 80 uM incubated for 24 hrs by annexin V-FITC/propidium iodide staining based flow cytometry analysis relative to control.
Settings: not given
The data set is classed as functional. A general note: Flow cytometry measures light scatter and fluorescence of single cells or particles in a stream.
On to `OC[C@H]1O[C@@H](Oc2ccc(COC(=S)Nc3ccc(C(F)(F)F)cc3)cc2F)[C@H](O)[C@@H](O)[C@@H]1O`, for which the outcome was inactive.
Still for that read-out and setting: in the case of `OC[C@H]1O[C@H](Oc2ccc(COC(=S)Nc3ccc(C(F)(F)F)cc3)cc2Br)[C@@H](O)[C@@H](O)[C@@H]1O` it was 51.8%.
On the same count and under the same terms, the value for `OC[C@H]1O[C@@H](Oc2ccc(COC(=S)Nc3ccc(C(F)(F)F)cc3)cc2Br)[C@H](O)[C@@H](O)[C@H]1O` was 20.9%.

A further data set deals with HeLa. Put plainly: Induction of apoptosis in human HeLa cells at 80 uM incubated for 24 hrs by annexin V-FITC/propidium iodide staining based flow cytometry analysis relative to control.
Settings: not given
The data set is classed as functional.
Turning to `OC[C@H]1O[C@@H](Oc2ccc(COC(=S)Nc3ccc(C(F)(F)F)cc3)cc2F)[C@H](O)[C@@H](O)[C@@H]1O`, the outcome was inactive.
On the same count and under the same terms, the value for `OC[C@H]1O[C@H](Oc2ccc(COC(=S)Nc3ccc(C(F)(F)F)cc3)cc2Br)[C@@H](O)[C@@H](O)[C@@H]1O` was 45.2%.

A further data set deals with HeLa. Put plainly: Induction of apoptosis in human HeLa cells assessed as viable cells at 80 uM incubated for 24 hrs by annexin V-FITC/propidium iodide staining based flow cytometry analysis (reference value: 91.7 %). Type of data set: functional. The note with it: read-out: Activity.
`OC[C@H]1O[C@H](Oc2ccc(COC(=S)Nc3ccc(C(F)(F)F)cc3)cc2Br)[C@@H](O)[C@@H](O)[C@@H]1O`: the viability at 80 µM worked out at 50.6%.

A further data set concerns HeLa. Put plainly: Induction of apoptosis in human HeLa cells assessed as early apoptotic cells at 80 uM incubated for 24 hrs by annexin V-FITC/propidium iodide staining based flow cytometry analysis (reference value: 3.59 %). The data set is classed as functional.
Settings: not given
Turning to `OC[C@H]1O[C@H](Oc2ccc(COC(=S)Nc3ccc(C(F)(F)F)cc3)cc2Br)[C@@H](O)[C@@H](O)[C@@H]1O`, the Activity came out at 21.1%.

Another data set concerns HeLa. The data set is described as follows: Induction of apoptosis in human HeLa cells assessed as late apoptotic cells at 80 uM incubated for 24 hrs by annexin V-FITC/propidium iodide staining based flow cytometry analysis (reference value: 3.95 %).
Settings: not given
The data set is classed as functional.
In the case of `OC[C@H]1O[C@H](Oc2ccc(COC(=S)Nc3ccc(C(F)(F)F)cc3)cc2Br)[C@@H](O)[C@@H](O)[C@@H]1O`, the Activity is 23.3%.

For another data set, the system named is HeLa. The data set is described as follows: Induction of apoptosis in human HeLa cells assessed as necrotic cells at 80 uM incubated for 24 hrs by annexin V-FITC/propidium iodide staining based flow cytometry analysis (reference value: 0.71 %). The data set is classed as functional.
Settings: not given
With `OC[C@H]1O[C@H](Oc2ccc(COC(=S)Nc3ccc(C(F)(F)F)cc3)cc2Br)[C@@H](O)[C@@H](O)[C@@H]1O`, the Activity is listed as 4.98%.

For the next data set, the system named is HepG2. Put plainly: Induction of apoptosis in human HepG2 cells assessed as viable cells at 80 uM incubated for 24 hrs by annexin V-FITC/propidium iodide staining based flow cytometry analysis (reference value: 87.1 %). The note with it: read-out: Activity. Type of data set: functional.
In the case of `OC[C@H]1O[C@H](Oc2ccc(COC(=S)Nc3ccc(C(F)(F)F)cc3)cc2Br)[C@@H](O)[C@@H](O)[C@@H]1O`, the viability at 80 µM was determined as 50.7%.

Another data set has as its system HepG2. The data set is described as follows: Induction of apoptosis in human HepG2 cells assessed as early apoptotic cells at 80 uM incubated for 24 hrs by annexin V-FITC/propidium iodide staining based flow cytometry analysis (reference value: 1.03 %). The data set is classed as functional.
Settings: not given
As for `OC[C@H]1O[C@H](Oc2ccc(COC(=S)Nc3ccc(C(F)(F)F)cc3)cc2Br)[C@@H](O)[C@@H](O)[C@@H]1O`, the Activity is 10.8%.

For the next data set, the system named is HepG2. Put plainly: Induction of apoptosis in human HepG2 cells assessed as late apoptotic cells at 80 uM incubated for 24 hrs by annexin V-FITC/propidium iodide staining based flow cytometry analysis (reference value: 10.1 %). Type of data set: functional.
Settings: not given
For the compound `OC[C@H]1O[C@H](Oc2ccc(COC(=S)Nc3ccc(C(F)(F)F)cc3)cc2Br)[C@@H](O)[C@@H](O)[C@@H]1O`, the Activity came out at 37.4%.

A further data set has as its system HepG2. The data set is described as follows: Induction of apoptosis in human HepG2 cells assessed as necrotic cells at 80 uM incubated for 24 hrs by annexin V-FITC/propidium iodide staining based flow cytometry analysis (reference value: 1.63 %). The data set is classed as functional.
Settings: not given
With `OC[C@H]1O[C@H](Oc2ccc(COC(=S)Nc3ccc(C(F)(F)F)cc3)cc2Br)[C@@H](O)[C@@H](O)[C@@H]1O`, the Activity is reported as 1.13%.

A further data set relates to HepG2. The data set is described as follows: Cytotoxicity against human HepG2 cells assessed as cell viability at 80 uM incubated for 24 hrs by MTT assay relative to control. The note with it: read-out: Activity. Type of data set: functional.
Regarding `OC[C@H]1O[C@H](Oc2ccc(COC(=S)Nc3ccc(C(F)(F)F)cc3)cc2Br)[C@@H](O)[C@@H](O)[C@@H]1O`, the viability at 80 µM came to 73%.

A further data set concerns HepG2. The data set is described as follows: Cytotoxicity against human HepG2 cells assessed as cell viability at 100 uM incubated for 24 hrs by MTT assay relative to control. Type of data set: functional. To be noted: read-out: Activity.
For the compound `OC[C@H]1O[C@H](Oc2ccc(COC(=S)Nc3ccc(C(F)(F)F)cc3)cc2Br)[C@@H](O)[C@@H](O)[C@@H]1O`, the viability at 100 µM was found to be 67%.

A further data set deals with HepG2. The data set is described as follows: Cytotoxicity against human HepG2 cells assessed as cell viability at 80 uM incubated for 24 hrs in presence of doxorubicin by MTT assay relative to control. The data set is classed as functional. To be noted: read-out: Activity.
`OC[C@H]1O[C@H](Oc2ccc(COC(=S)Nc3ccc(C(F)(F)F)cc3)cc2Br)[C@@H](O)[C@@H](O)[C@@H]1O`: the viability at 80 µM is 64%.

A further data set deals with HepG2. The data set is described as follows: Cytotoxicity against human HepG2 cells assessed as cell viability at 100 uM incubated for 24 hrs in presence of doxorubicin by MTT assay relative to control. The data set is classed as functional. To be noted: read-out: Activity.
Consider `OC[C@H]1O[C@H](Oc2ccc(COC(=S)Nc3ccc(C(F)(F)F)cc3)cc2Br)[C@@H](O)[C@@H](O)[C@@H]1O`, for which the viability at 100 µM worked out at 46%.

System in another data set: not listed separately
The data set is described as follows: Release of H2S in PBS at 50 uM at pH 7.4. Type of data set: physicochemical. To be noted: buffer, pH 7.4, 50 µM.
The compound `OC[C@H]1O[C@@H](Oc2ccc(COC(=S)Nc3ccc(C(F)(F)F)cc3)cc2F)[C@H](O)[C@@H](O)[C@@H]1O` gave an Activity of 36%.
Same read-out and setting: in the case of `OC[C@H]1O[C@H](Oc2ccc(COC(=S)Nc3ccc(C(F)(F)F)cc3)cc2Br)[C@@H](O)[C@@H](O)[C@@H]1O` it was 36%.
The same measure, in the same setting: in the case of `OC[C@H]1O[C@@H](Oc2ccc(COC(=S)Nc3ccc(C(F)(F)F)cc3)cc2Br)[C@H](O)[C@@H](O)[C@H]1O` it was 36%.

The next data set relates to HepG2. Put plainly: Release of H2S in human HepG2 cells assessed as fold increase in fluorescence intensity at 50 uM incubated for 7 hrs in presence of fluorescent probe WPS-1 measured after 30 mins by confocal imaging analysis. The data set is classed as ADME, cell-based. The note with it: hepg2, 7.5 h.
Regarding `OC[C@H]1O[C@H](Oc2ccc(COC(=S)Nc3ccc(C(F)(F)F)cc3)cc2Br)[C@@H](O)[C@@H](O)[C@@H]1O`, the “fold change (FC)” value is 7.
